1 compound from patent US11083717B2, “Compositions and methods for drug sensitization of parasites” (The Texas A&M University System, priority 2015, dated 2021) can be followed below.

≈ marks a conversion by molar mass, not a printed value. Like-named read-outs stand apart in the source and are kept apart here.

What is called MIC50 is the lowest concentration that inhibits either 50% of growth or 50% of the strains tested, depending on the study.

The subject of data set [1] is Cryptosporidium parvum.
Data set [2] in a line: MCLint in vitro intrinsic clearance, mouse (MLM). The format is in vitro ADME.
Data set [3] is described as follows: Plasma protein binding. The class given is in vitro ADME. To be noted: mouse, mice, read-out: PPB (converted).
In data set [4] the test system is Cryptosporidium parvum (CP). The data set can be described thus: Cell culture model of Cryptosporidium parvum infection in HCT-8 cells, real-time qRT-PCR. The format is cell-based. The conditions noted are these: Cryptosporidium parvum. The method, boiled down: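 HCT-8 monolayers were infected with C. parvum Iowa oocysts (1.5×10^4/well) for 3 h, then compounds were added after medium exchange and cells were incubated 41 h more (44 h total, 37 °C). Parasite Cp18S rRNA was measured by one-step SYBR qRT-PCR of lysates, normalized to host Hs18S, and % inhibition at the stated µM was derived from a standard curve.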
For orientation: In qPCR the cycle at which signal appears reflects the starting amount.

Where [5] appears, read: NZ-366 50 mg/kg, NZ-369 100 mg/kg, paromomycin 2,000 mg/kg.

On to `CNC(=O)C(C)c1ccc(Oc2nc3ccc(Cl)cc3s2)cc1` (stereo not drawn) [NZ-369, 2-{4-[(6-chloro-1,3-benzothiazol-2-yl)oxy]phenyl}-N-methylpropanamide], for which the “Mouse Model (Mead) DPI7” value in data set [1] (@100 mg/kg, day 7 post infection) is recorded as “DPI7 = 70%”. In addition, in data set [1] (NZ-366 50 mg/kg, NZ-369 100 mg/kg, 7 days), the “overt toxicity in the treated infected mice” value is “no overt toxicity”. In data set [1] (NZ-366 50 mg/kg, NZ-369 100 mg/kg, gavage, single daily dose, FIG. 1), the “anticryptosporidial activity, fecal oocysts day 7 post infection” value is given as “have anticryptosporidial activity”. Besides, in data set [1] (setting [5]), the “effectiveness compared with paromomycin after a single dose” value is on record as “more effective than paromomycin” and the “effectiveness compared with paromomycin over the course of the study” value is “equally as effective as paromomycin”. Moreover, in data set [2], the “MCLint (mL/min/g liver), MLM” value is reported as “MLM = 3.3 mL/min/g liver”. In addition, in data set [3], the fraction unbound was 0.015. The MIC50 in data set [4] (44 h, CP in HCT-8 cells, 44 h infection, 50% reduction of parasite growth vs control, NA: not active, read-out: MIC50) was 50 to 80 nM (≈ 0.0173 to 0.0277 µg/mL). For the same compound, the MIC50 in data set [4] (read-out: MIC50 (nM) (CP)) was determined as 80 nM (≈ 0.0277 µg/mL).
